Among the data in patent US7125990B2, “Imidazolyl derivatives as corticotropin releasing factor inhibitors” (Bristol-Myers Squibb COmpany, priority 2001, dated 2006) are Ki values, retold here.

pKi: −log10 of the molar value.

The target of this test is T1, CRF1 receptors (Homo sapiens, UniProt P34998).
T1 construct: endogenous in cells; host or cells: IMR-32 cells, transformed with 2.5 µM 5'-bromo-2'-deoxyuridine for 10 days; membrane preparation
T1 sequence (P34998 24-415): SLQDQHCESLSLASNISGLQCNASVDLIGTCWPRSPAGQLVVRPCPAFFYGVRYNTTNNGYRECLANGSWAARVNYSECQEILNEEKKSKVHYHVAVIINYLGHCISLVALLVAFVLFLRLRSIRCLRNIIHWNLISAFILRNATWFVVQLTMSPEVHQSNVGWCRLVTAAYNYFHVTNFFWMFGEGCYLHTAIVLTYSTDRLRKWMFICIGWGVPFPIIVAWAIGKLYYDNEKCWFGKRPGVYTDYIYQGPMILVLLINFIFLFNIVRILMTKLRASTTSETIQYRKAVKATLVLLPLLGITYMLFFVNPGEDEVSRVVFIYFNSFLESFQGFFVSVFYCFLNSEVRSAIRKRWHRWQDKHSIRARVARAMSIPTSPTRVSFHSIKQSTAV
In words: CRF1 receptor radioligand binding assay ([125I]-oCRF competition, IMR-32 cell membranes). Conditions: IMR-32 cell membranes, [125I]-oCRF 100 pM; read-out: Ki (CRF-1R). Summed up: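 Buffer: Tris pH 7.2 with MgCl2, BSA, Triton X-100, aprotinin, leupeptin; reaction stopped with ice-cold wash and filtered. Nonspecific binding set with 10 μM oCRF.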
As to `Cc1cc(C)c(N2CCCn3c2nc(C(F)(F)F)c3CN2CCCC2Cc2ccccc2)c(C)c1` (stereo not drawn) [Example 347, 3-(2-Benzyl-pyrrolidin-1-ylmethyl)-2-trifluoromethyl-8-(2,4,6-trimethyl-phenyl)-5,6,7,8-tetrahydro-imidazo[1,2-a]pyrimidine], the negative logarithm of the Ki (pKi) (as a rule, the negative decadic logarithm of the Ki, by convention in mol/L) is greater than 8.00.

As for “(2,2,3,3,3-Pentafluoro-propyl)-(2,2,2-trifluoro-ethyl)-[2-trifluoromethyl-8-(2,4,6-trimethyl-phenyl)-8H-1,3a,8-triaza-cyclopenta[α]inden-3-ylmethyl]-amine [Example 162]”, the pKi was greater than 6.00.

For “Phenethyl-[2-trifluoromethyl-8-(2,4,6-trimethyl-phenyl)-8H-1,3a,8-triaza-cyclopenta[α]inden-3-ylmethyl]-(3,3,3-trifluoro-propyl)-amine [Example 168]”, the pKi is greater than 6.00.
